# According to patent US11066649B2, “Method for inducing human cholangiocyte differentiation” (INSERM (INSTITUT NATIONAL DE LA SANTÉ ET DE LA RECHERCHE …, priority 2014, dated 2021):
# Experiments:
# [1] = system: hepatic progenitors; experiment: Effect of periportal mesenchymal factors on commitment of hepatic progenitors toward cholangiocytes; type: cell-based, human; details: addition to hepatic progenitors; data not shown
# [2] = system: HepaRG-Chol; details: VEGF-165 20 ng/ml for 2 days
# Procedure: HepaRG-HB cultured in the reduced medium were treated for 2 days with IL-6 (10 ng/ml), then for 2 days with sodium taurocholate hydrate (10 nM) and then for 2 days with sodium taurocholate hydrate (10 nM) and sodium butyrate (1.8 μM) to prevent spontaneous differentiation along the hepatocytic lineage. Independent culture experiments were performed 4 times. For proliferation assay, VEGF-165 (20 ng/ml) (Promokine, C-64420) was added on HepaRG-Chol culture for 2 days. Immunostaining pictures were analyzed and quantification was assessed with Cell Health Profiling BioApplication from Cellomics software.
# [3] = system: hESC-derived differentiating cells; experiment: Ki67 staining of differentiating cells after addition of IL-6; type: cell-based, human; details: after addition of IL-6 (10 ng/ml)
# Procedure: (§1) At days 10-12 of differentiation, hESC/hiPSC-hepatoblasts were harvested with cell dissociation buffer (0.1 mg/ml EDTA, 0.5 mg/ml BSA in PBS) and seeded onto 12-well collagen I-coated plates (BD Biosciences) with plating medium (William's E/Ham F12 1:1, 10% FBS (PAA Laboratories), 1 mg/ml fraction V fatty acid-free BSA (Sigma), 1 mM L-glutamine) for 4 hours. Cells were then incubated overnight with biliary differentiation medium (BDM) (William's E/Ham F12 1:1, 10^−5 M linoleic acid-Albumin (Sigma L9530), 5.10^−8 M 3,3′,5-Triiodo-L-thyronine (Sigma T2752), 0.2 IU Insulin, 6.10^−4 M Vitamin C (Boyer), […] (Sigma T5391), 1 mM sodium pyruvate (Gibco)). […]
# Cells were fixed with 4% Paraformaldehyde for 15 minutes at room temperature and permeabilized with 0.5% Triton X-100 for 15 minutes, 3% BSA-PBS for 30 minutes at room temperature or with 0.2% saponin and 5% donkey serum for 45 minutes at room temperature. […] All the photographs were taken with a Leica HMR microscope (Leica Microsystems), inverted DMIRBE microscope (Leica) using a 20×/0.4 N Plan objective (leica) and a CoolSnapES N&B camera (Photometrics) driven by MetaVue software (Molecular devices), SP5 LEICA DMI 6000 CS Microscope (Leica, Germany) and treated with LAS AF 2.6.0 software, or ACT-1 Nikon software or Cellomics ArrayScan VTI HCS Reader.
# [4] = system: hESC-Chol; experiment: Cellular Ca2+ imaging: intracellular Ca2+ increase after hormonal stimulation; type: cell-based, human; details: hESC-Chol at day 23, Fura2-AM loaded
# Procedure: At day 17, differentiating hESC-Chols were plated on glass coverslips coated with type I collagen and differentiated further into cholangiocyte-like cells as described above. At day 23 hESC-Chols were loaded with 3 μM Fura2-AM (Invitrogen, F1201) in BDM medium (37° C. and 5% CO2), for 45 minutes. Cells were then washed twice, and transferred into a perfusion chamber placed on the stage of a Zeiss inverted microscope (Axiovert 35). Intracellular calcium increases were measured after stimulation with somatostatin (Eumedica), ATP (Sigma), or Acetylcholine (Sigma). Calcium imaging was performed as described previously.^41 Fluorescence images were collected by a charge-coupled device camera (Princeton), digitized and integrated in real time by an image processor (Metafluor, Princeton).
# To assess the functionality of our hESC-Chol, they analyzed their response to Adenosine triphosphate (ATP), acetylcholine and Somatostatin, known to induce Ca^2+ increase in biliary cells via P2Y1 receptors,^5 M3 muscarinic receptor (AChR M3),^25 Somatostatin receptor type 2 (SSTR2)^26 respectively, as well as type III Inositol 1,4,5-triphosphate (InsP3) receptor (InsP3R), an intracellular Ca^2+ channel, which stimulates release of Ca^2+ from intracellular stores into the cytosol.^27
# [5] = system: hESC-Chol; experiment: Expression of cholangiocyte markers in hESC-Chol after addition of NaBut; type: cell-based, human; details: addition of NaBut on hESC-Chol (1 μM, days 21 to 23)
# Procedure: as §1
# Total RNA was purified with an RNAeasy kit (Qiagen). cDNAs were obtained by using QuantiTect kit (Qiagen 204341) or the High Capacity cDNA Reverse Transcription Kit (Applied Biosystems, Carlsbad, Calif.) according to the manufacturer's instructions. The level of gene expression was measured and analyzed by real-time PCR over 40 cycles using Taqman universal master mix II and Taqman gene expression assays (Applied Biosystems) using an ABI-7000 real-time PCR system and ABI 7000 software. The expression level of CFTR TGR5 (GPBAR-1), SCTR, GGT1, SOX9, AQP1 and JAG was determined in relation to RPL13A, which served as a housekeeping gene. […]
# [6] = system: HepaRG-HB; experiment: Effect of GH on HepaRG-hepatoblasts; type: cell-based, human; details: addition of GH; data not shown
# Procedure: Independent culture experiments were performed 4 times.
molecule,measurement,setting,value
VEGF,cell commitment toward cholangiocytes,[1],did not induce significant cell commitment
same,increase in the number of cells in G2/M phases,[2],two-fold increase
TGFβ1: Transforming growth factor beta 1,cell commitment toward cholangiocytes,[1],did not induce significant cell commitment
IL-6: polypeptide also known as B cell-stimulating factor 2; Uniprot P05231,Ki67-positive cycling cells,[3],up to 68%
CC(=O)OCC[N+](C)(C)C [acetylcholine],percentage of responsive cells (Ca2+ increase),[4],40%±4
"CCCC(=O)[O-].[Na+] [NaBut, Sodium Butyrate]",expression of cholangiocyte markers,[5],did not significantly change
"Nc1ncnc2c1ncn2[C@@H]1O[C@H](COP(=O)(O)OP(=O)(O)OP(=O)(O)O)[C@@H](O)[C@H]1O [ATP, Adenosine triphosphate]",percentage of responsive cells (Ca2+ increase),[4],70%±5
GH: peptide hormone that stimulates growth and metabolism; Uniprot P01241,proliferation and differentiation of HepaRG-hepatoblasts,[6],did not improve
"BMP4: Bone morphogenetic protein 4; Uniprot P12644 (protein, UniProt P12644 293-408, looked up) Bone morphogenetic protein 4: SPKHHSQRARKKNKNCRRHSLYVDFSDVGWNDWIVAPPGYQAFYCHGDCPFPLADHLNSTNHAIVQTLVNSVNSSIPKACCVPTELSAISMLYLDEYDKVVLKNYQEMVVEGCGCR",cell commitment toward cholangiocytes,[1],did not induce significant cell commitment
